# According to patent US20180008587A1, “THIOHYDANTOIN ANDROGEN RECEPTOR ANTAGONISTS FOR THE TREATMENT OF CANCER” (Jaressen Pharmaceutica NV, priority 2016, published 2018):
# Residue numbers refer to the chain shown, from its start. Read-outs that look alike come from different tables or passages of the source.
# Key:
# Format in all cases: cell-based
# [1] = biological target: T1, F876L mutant Androgen Receptor (AR-F876L) (Homo sapiens, UniProt P10275, F877L); test: LNCaP-AR-F876L ANT reporter assay (ARE firefly luciferase, antagonist mode); settings: for Emax: read-out: LNCaP-AR-F876L ANT MAX % Inh; for IC50: read-out: LNCaP-AR-F876L ANT pIC50 (converted)
# T1 construct: expressed in transfected cells; host or cells: LNCaP (LNCaP F876L)
# T1 sequence (P10275 1-920 F877L): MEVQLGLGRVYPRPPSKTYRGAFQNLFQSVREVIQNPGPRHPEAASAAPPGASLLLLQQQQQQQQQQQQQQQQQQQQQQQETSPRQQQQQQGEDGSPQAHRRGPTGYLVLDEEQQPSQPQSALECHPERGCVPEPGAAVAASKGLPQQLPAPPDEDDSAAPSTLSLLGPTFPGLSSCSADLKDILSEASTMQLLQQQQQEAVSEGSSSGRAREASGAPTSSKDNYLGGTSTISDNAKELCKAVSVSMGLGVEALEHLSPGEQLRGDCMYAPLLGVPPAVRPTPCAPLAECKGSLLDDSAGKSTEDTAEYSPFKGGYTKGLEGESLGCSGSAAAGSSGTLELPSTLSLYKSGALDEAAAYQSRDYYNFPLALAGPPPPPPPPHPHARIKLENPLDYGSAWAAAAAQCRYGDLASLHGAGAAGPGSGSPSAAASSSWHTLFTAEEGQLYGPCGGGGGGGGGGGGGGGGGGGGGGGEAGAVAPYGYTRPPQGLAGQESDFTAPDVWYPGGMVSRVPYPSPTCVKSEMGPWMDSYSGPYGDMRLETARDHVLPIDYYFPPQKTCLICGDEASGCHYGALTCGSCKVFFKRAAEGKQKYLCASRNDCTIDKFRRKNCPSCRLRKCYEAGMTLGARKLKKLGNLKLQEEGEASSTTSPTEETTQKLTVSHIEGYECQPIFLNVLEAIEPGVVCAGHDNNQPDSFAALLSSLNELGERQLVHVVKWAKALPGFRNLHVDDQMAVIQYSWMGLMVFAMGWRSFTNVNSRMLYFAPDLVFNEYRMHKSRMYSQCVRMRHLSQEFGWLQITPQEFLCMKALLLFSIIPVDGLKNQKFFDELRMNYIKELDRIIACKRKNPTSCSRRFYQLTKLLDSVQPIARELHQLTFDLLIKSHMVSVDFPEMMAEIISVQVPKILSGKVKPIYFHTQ
# How it was run: (§1)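 Puromycin-selected LNCaP pools, grown in charcoal-stripped serum, were incubated 20-24 h at 37 °C with compounds, plus agonist challenge at 400 pM for wild-type and 600 pM for F876L.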
# [2] = biological target: T2, wild-type Androgen Receptor (AR-wt) (Homo sapiens, UniProt P10275); test: LNCaP-AR-wt AG reporter assay (ARE firefly luciferase, agonist mode); settings: for Emax: read-out: LNCaP-AR-wt AG MAX % Stim
# T2 construct: expressed in transfected cells; host or cells: LNCaP (LNCaP AR (cs))
# T2 sequence (P10275 1-920): T1 sequence (P10275 1-920 F877L) with L877F
# How it was run: (§2)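 Read-out is luciferase luminescence taken 1 h after Steady-Glo addition, following 20-24 h compound exposure at 37 °C in LNCaP pools stably carrying wild-type or F876L AR. Cells were grown in charcoal-stripped serum. Antagonist wells received agonist at 400 pM (WT) or 600 pM (F876L).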
# [3] = biological target: T1, F876L mutant Androgen Receptor (AR-F876L); test: LNCaP-AR-F876L AG reporter assay (ARE firefly luciferase, agonist mode); settings: for Emax: read-out: LNCaP-AR-F876L AG MAX % Stim
# How it was run: as §2
# [4] = biological target: T2, wild-type Androgen Receptor (AR-wt); test: LNCaP-AR-wt ANT reporter assay (ARE firefly luciferase, antagonist mode); settings: for IC50: antagonist mode, 400 pM R-1881 challenge, −Log10(IC50 [Molar]), read-out: LNCaP-AR-wt ANT pIC50 (converted); for Emax: read-out: LNCaP-AR-wt ANT MAX % Inh
# How it was run: as §1
# [5] = maximum % inhibition of R1881 control response over tested concentration range
# [6] = agonist mode, −Log10(EC50 [Molar]), read-out: LNCaP-AR-wt AG pEC50 (converted)
# [7] = maximum % stimulation (agonist response) over tested concentration range
# [8] = agonist mode, −Log10(EC50 [Molar]), read-out: LNCaP-AR-F876L AG pEC50 (converted)
Structure (SMILES),Emax [1],IC50 [1],EC50 [2],Emax [2],EC50 [3],Emax [3],IC50 [4],Emax [4],"Emax [1, 5]","EC50 [2, 6]","Emax [2, 7]","EC50 [3, 8]","Emax [3, 7]","Emax [4, 5]"
"N#Cc1ncc(N2C(=O)C3(CCC3)N(c3cccnc3)C2=S)cc1C(F)(F)F [Cpd 9, 5-[5-oxo-8-(3-pyridyl)-7-thioxo-6,8-diazaspiro[3.4]octan-6-yl]-3-(trifluoromethyl)pyridine-2-carbonitrile]",100%,692 nM,> 15100 nM,-0.2%,> 15100 nM,0%,871 nM,99%,,,,,,
"N#Cc1ncc(N2C(=O)C3(CCC3)N(c3ccc(OC4CCOCC4)cc3)C2=S)cc1C(F)(F)F [Cpd 112, 5-[5-oxo-8-(4-tetrahydropyran-4-yloxyphenyl)-7-thioxo-6,8-diazaspiro[3.4]octan-6-yl]-3-(trifluoromethyl)pyridine-2-carbonitrile]",,331 nM,,,,,355 nM,,97%,> 15100 nM,1.1%,> 15100 nM,2.7%,100%
"N#Cc1ncc(N2C(=O)C3(CCC3)N(c3ccc(Oc4cncnc4)cc3)C2=S)cc1C(F)(F)F [Cpd 88, 5-[5-oxo-8-(4-pyrimidin-5-yloxyphenyl)-7-thioxo-6,8-diazaspiro[3.4]octan-6-yl]-3-(trifluoromethyl)pyridine-2-carbonitrile]",87.3%,138 nM,> 15100 nM,0.7%,> 15100 nM,0.7%,631 nM,97.2%,,,,,,
"N#Cc1ncc(N2C(=O)C3(CCC3)N(c3ccc(F)cc3)C2=S)cc1C(F)(F)F [Cpd 102, 5-[8-(4-fluorophenyl)-5-oxo-7-thioxo-6,8-diazaspiro[3.4]octan-6-yl]-3-(trifluoromethyl)pyridine-2-carbonitrile]",,501 nM,,,,,646 nM,,99.6%,> 15100 nM,0.9%,> 15100 nM,1.9%,101%
"Cc1ccc(NC(=O)c2ccc(N3C(=S)N(c4cnc(C#N)c(C)c4)C(=O)C34CCC4)cc2F)cn1 [Cpd 75, 4-[6-(6-cyano-5-methyl-3-pyridyl)-5-oxo-7-thioxo-6,8-diazaspiro[3.4]octan-8-yl]-2-fluoro-N-(6-methyl-3-pyridyl)benzamide]",100%,145 nM,> 15100 nM,0.8%,> 15100 nM,0.8%,562 nM,101%,,,,,,
"N#Cc1ncc(N2C(=O)C3(CCC3)N(c3ccc(C4CCOCC4)cc3)C2=S)cc1C(F)(F)F [Cpd 89, 5-[5-oxo-8-(4-tetrahydropyran-4-ylphenyl)-7-thioxo-6,8-diazaspiro[3.4]octan-6-yl]-3-(trifluoromethyl)pyridine-2-carbonitrile]",,437 nM,,,,,631 nM,,96.2%,> 15100 nM,0.3%,> 15100 nM,1.4%,101%
"N#Cc1ncc(N2C(=O)C3(CCC3)N(c3ccc(C(=O)NCCc4ccncc4)c(F)c3)C2=S)cc1C(F)(F)F [Cpd 14, 4-[6-[6-cyano-5-(trifluoromethyl)-3-pyridyl]-5-oxo-7-thioxo-6,8-diazaspiro[3.4]octan-8-yl]-2-fluoro-N-[2-(4-pyridyl)ethyl]benzamide]",,112 nM,,,,,87.1 nM,,99.7%,> 15100 nM,0%,> 15100 nM,-0.1%,102%
"CC(C)CCNC(=O)c1ccc(N2C(=S)N(c3cnc(C#N)c(C(F)(F)F)c3)C(=O)C23CCC3)cc1F [Cpd 27, 4-[6-[6-cyano-5-(trifluoromethyl)-3-pyridyl]-5-oxo-7-thioxo-6,8-diazaspiro[3.4]octan-8-yl]-2-fluoro-N-isopentyl-benzamide]",98.8%,631 nM,> 15100 nM,0.4%,> 15100 nM,0.2%,912 nM,96.8%,,,,,,
"N#Cc1ncc(N2C(=O)C3(CCC3)N(c3ccc(C(=O)NCc4cnccn4)c(F)c3)C2=S)cc1C(F)(F)F [Cpd 54, 4-[6-[6-cyano-5-(trifluoromethyl)-3-pyridyl]-5-oxo-7-thioxo-6,8-diazaspiro[3.4]octan-8-yl]-2-fluoro-N-(pyrazin-2-ylmethyl)benzamide]",,219 nM,,,,,380 nM,,98.9%,> 15100 nM,0.1%,> 15100 nM,0.5%,101%
"Cc1cc(N2C(=O)C3(CCC3)N(c3ccc(C(=O)NCc4cccs4)c(F)c3)C2=S)cnc1C#N [Cpd 33, 4-[6-(6-cyano-5-methyl-3-pyridyl)-5-oxo-7-thioxo-6,8-diazaspiro[3.4]octan-8-yl]-2-fluoro-N-(2-thienylmethyl)benzamide]",,490 nM,,,,,1230 nM,,100%,> 15100 nM,0.3%,> 15100 nM,0.3%,99.6%
"Cc1ccc(-c2ccc(N3C(=S)N(c4cnc(C#N)c(C)c4)C(=O)C34CCC4)cc2)o1 [Cpd 50, 3-methyl-5-[8-[4-(5-methyl-2-furyl)phenyl]-5-oxo-7-thioxo-6,8-diazaspiro[3.4]octan-6-yl]pyridine-2-carbonitrile]",,282 nM,,0.7%,,0.2%,363 nM,,98.2%,> 15100 nM,,> 15100 nM,,98%
"Cc1cc(N2C(=O)C3(CCC3)N(c3ccc(OC4CCS(=O)(=O)CC4)cc3)C2=S)cnc1C#N [Cpd 6, 5-[8-[4-(1,1-dioxothian-4-yl)oxyphenyl]-5-oxo-7-thioxo-6,8-diazaspiro[3.4]octan-6-yl]-3-methyl-pyridine-2-carbonitrile]",,178 nM,,,,,646 nM,,99.5%,> 15100 nM,0.4%,> 15100 nM,0%,100%
